Measurements taken from patent US7459277B2, “Mammalian T1R3 sweet taste receptors” (The Regents of the University of California, priority 2003, dated 2008).

What was measured:
rodents = conditions: 100 times higher concentrations than sweet to humans; cited from earlier work
[1] = test system: T1R2 KO mice expressing a human T1R2 gene; assay: Behavioral taste responses of mice expressing a human T1R2 transgene; format: in vivo, mouse; conditions: humanized T1R2 mice (T1R2 KO + hT1R2 transgene); monellin ~10 uM, thaumatin ~5 uM, aspartame 10 mM, glycyrrhizic acid 500 uM, neohesperidin dihydrochalcone 400 uM
[2] = target: T1, human T1R2 and human T1R3 (Homo sapiens, UniProt Q7RTX0+Q8TE23); assay: Cells transfected with human T1R2 and human T1R3; format: cell-based
T1 construct: expressed in transfected cells; host or cells: cells (HEK inferred from the preceding sentence and b309)
T1 sequence (Q8TE23 20-839): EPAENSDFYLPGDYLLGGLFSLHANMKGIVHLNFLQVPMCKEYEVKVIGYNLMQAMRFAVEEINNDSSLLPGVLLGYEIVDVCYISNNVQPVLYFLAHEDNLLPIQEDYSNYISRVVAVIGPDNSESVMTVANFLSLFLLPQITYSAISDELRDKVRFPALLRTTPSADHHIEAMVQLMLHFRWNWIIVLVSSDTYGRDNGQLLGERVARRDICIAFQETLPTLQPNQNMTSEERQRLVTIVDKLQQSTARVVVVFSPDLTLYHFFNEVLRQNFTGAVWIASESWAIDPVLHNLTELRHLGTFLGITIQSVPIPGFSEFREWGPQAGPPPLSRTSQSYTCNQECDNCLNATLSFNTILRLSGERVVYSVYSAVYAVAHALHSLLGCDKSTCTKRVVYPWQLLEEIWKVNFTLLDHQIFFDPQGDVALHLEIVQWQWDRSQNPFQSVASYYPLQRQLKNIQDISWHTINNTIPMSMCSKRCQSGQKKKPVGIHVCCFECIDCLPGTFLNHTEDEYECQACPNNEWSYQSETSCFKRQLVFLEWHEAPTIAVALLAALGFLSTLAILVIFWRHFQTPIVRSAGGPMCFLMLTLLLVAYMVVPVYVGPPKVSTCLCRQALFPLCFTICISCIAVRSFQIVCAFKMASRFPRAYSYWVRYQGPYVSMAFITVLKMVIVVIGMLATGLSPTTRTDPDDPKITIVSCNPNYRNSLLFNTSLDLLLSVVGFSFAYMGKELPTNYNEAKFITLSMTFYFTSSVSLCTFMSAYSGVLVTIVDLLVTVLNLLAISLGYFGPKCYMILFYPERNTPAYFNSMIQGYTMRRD
T1 sequence (Q7RTX0 21-852): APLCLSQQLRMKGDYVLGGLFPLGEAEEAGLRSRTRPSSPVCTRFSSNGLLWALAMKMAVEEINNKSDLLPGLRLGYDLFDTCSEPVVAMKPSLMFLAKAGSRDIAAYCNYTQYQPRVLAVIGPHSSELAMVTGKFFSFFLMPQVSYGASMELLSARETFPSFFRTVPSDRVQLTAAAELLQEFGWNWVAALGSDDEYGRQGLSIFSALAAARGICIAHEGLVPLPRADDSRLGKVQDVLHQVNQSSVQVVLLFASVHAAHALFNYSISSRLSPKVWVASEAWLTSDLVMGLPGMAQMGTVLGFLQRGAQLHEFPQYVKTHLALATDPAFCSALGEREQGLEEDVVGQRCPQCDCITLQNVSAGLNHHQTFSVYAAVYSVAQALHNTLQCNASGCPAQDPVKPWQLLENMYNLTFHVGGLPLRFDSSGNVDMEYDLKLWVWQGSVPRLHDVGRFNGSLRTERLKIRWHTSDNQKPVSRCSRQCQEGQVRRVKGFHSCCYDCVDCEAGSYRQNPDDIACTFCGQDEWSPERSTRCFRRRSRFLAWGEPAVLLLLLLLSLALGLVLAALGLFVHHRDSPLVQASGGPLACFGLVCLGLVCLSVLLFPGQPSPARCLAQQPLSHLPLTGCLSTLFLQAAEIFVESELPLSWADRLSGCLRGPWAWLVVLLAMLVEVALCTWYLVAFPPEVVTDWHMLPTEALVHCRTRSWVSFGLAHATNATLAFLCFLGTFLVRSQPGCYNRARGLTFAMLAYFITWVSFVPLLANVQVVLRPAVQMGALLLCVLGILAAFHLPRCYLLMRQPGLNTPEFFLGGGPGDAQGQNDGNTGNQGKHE
Procedure: (§1) We generated mice that were homozygous for the T1R2 KO allele, but instead expressed a human T1R2 transgene in the native “T1R2-cells”. A 12 kb genomic clone containing the T1R2 regulatory sequences was fused to a hT1R2 full length cDNA and introduced into T1R2 KO mice. Multiple independent lines were assayed for their selectivity and sensitivity to sweet tastants. To examine expression of hT1R2, we performed two-color fluorescent in situ hybridization experiments in transgenic animals carrying the wild type mT1R2 allele. […] Taken together, these experiments validate T1Rs as key determinants of differences in sweet taste selectivity and specificity between rodents and humans, and further substantiate T1R2+3, and T1R2-expressing cells, as an principal mediator of sweet taste in vivo. Finally, we propose that polymorphisms in both T1R2 and T1R3 are important determinants of human individual sweet taste preferences.
(§2) Modified HEK-293 cells (PEAK^rapid cells; Edge BioSystems, Md.) were grown, transfected with T1Rs and promiscuous G-proteins and assayed for functional responses to tastants by Ca-imaging essentially as described previously (Nelson, G. et al., Cell, 106, 381-390 (2001)). […] Acquisition and analysis of fluorescence images used TILL-Vision software.

[3] = target: T2, human T1R2 and mouse T1R3 GPCRs (UniProt Q8TE23+Q925D8); assay: HEK cells transfected with human T1R2 and mouse T1R3; format: cell-based
T2 construct: expressed in transfected cells; host or cells: HEK cells
T2 sequence (Q8TE23 20-839): T1 sequence (Q8TE23 20-839)
T2 sequence (Q925D8 21-858): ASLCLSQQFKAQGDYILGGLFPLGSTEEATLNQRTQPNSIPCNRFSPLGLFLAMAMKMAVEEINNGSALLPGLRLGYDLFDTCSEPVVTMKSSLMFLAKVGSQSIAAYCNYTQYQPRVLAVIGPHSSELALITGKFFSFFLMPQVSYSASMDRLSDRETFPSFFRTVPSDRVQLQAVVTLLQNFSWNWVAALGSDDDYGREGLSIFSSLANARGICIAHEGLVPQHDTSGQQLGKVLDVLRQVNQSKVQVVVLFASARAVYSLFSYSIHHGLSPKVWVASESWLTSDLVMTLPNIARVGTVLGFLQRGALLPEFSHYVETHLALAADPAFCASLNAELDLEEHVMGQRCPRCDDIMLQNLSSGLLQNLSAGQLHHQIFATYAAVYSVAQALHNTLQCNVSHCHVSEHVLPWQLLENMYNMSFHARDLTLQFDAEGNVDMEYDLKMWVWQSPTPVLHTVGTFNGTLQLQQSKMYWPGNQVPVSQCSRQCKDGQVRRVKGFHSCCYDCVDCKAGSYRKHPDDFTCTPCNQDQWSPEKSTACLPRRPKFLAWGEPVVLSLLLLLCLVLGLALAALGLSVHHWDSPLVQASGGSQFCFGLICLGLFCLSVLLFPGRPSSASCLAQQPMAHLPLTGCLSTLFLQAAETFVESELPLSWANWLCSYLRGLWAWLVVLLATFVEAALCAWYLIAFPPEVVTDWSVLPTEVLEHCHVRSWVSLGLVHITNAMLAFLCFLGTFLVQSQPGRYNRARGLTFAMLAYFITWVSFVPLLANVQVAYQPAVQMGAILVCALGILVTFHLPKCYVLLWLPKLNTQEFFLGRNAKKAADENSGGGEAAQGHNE
Procedure: as §1, §2

humans = conditions: sub-millimolar concentrations; cited from earlier work

cell response [2]: robustly respond
cell response [3]: do not respond
Structure (SMILES): COc1ccc(CCC(=O)c2c(O)cc(O[C@@H]3O[C@H](CO)[C@@H](O)[C@H](O)[C@H]3O[C@@H]3O[C@@H](C)[C@H](O)[C@@H](O)[C@H]3O)cc2O)cc1O [neohesperidin dihydrochalcone]
preference in rodents (rodents): no preference
behavioral response to human sweet tastants [1]: still do not respond
sweet taste to humans (humans): taste sweet
